# Biological target: BRD4 (Homo sapiens (Human), UniProt O60885)
# Conditions: read-out: BRD4 IC50 (μM gmean)
row,SMILES,IC50
1,COC(=O)N1c2ccc3c(nc(CCn4ccc(C)n4)n3[C@H]3CC[C@H](C(=O)O)CC3)c2CC[C@@H]1C [Example 39],1 to 1000 µM
2,COC(=O)N1c2ccc3c(nc(Cc4ccccc4)n3CC3CCS(=O)(=O)CC3)c2CC[C@@H]1C [Example 253],1 to 1000 µM
3,COC(=O)N1c2ccc3c(nc(CCn4cccn4)n3CCNC3COC3)c2CC[C@@H]1C [Example 305],1 to 1000 µM
4,COC(=O)N1c2ccc3c(nc(CCn4cccn4)n3CCN(C)CC(=O)N(C)C)c2CC[C@@H]1C [Example 297],1 to 1000 µM
5,COC(=O)N1c2ccc3c(nc(C(C)Cn4cccn4)n3C3CCC(C(=O)O)CC3)c2CC[C@@H]1C (some centres unmarked) [Example 917],1 to 1000 µM
6,COC(=O)N1c2ccc3c(nc(CC(C(=O)O)c4cccc(C(F)F)c4)n3C3CCCOC3)c2CC[C@@H]1C (some centres unmarked) [Example 868],1 to 1000 µM
7,COC(=O)N1c2ccc3c(nc(C(C)(C)C)n3CCN3CCOCC3)c2CC[C@@H]1C [Example 249],1 to 1000 µM
8,COC(=O)N1c2ccc3c(nc(Nc4ccc(OC)cc4F)n3[C@H]3CC[C@H](C(=O)O)CC3)c2CC[C@@H]1C [Example 851],1 to 1000 µM
9,COC(=O)N1c2ccc3c(nc(C(O)CC4CCC(F)(F)CC4)n3C3CCCC(C(=O)O)C3)c2CC[C@@H]1C (some centres unmarked) [Example 712],1 to 1000 µM
10,COC(=O)N1c2ccc3c(nc(Nc4ccc(F)cc4)n3[C@H]3CC[C@H](C(=O)O)CC3)c2CC[C@@H]1C [Example 880],1 to 1000 µM
11,COC(=O)N1c2ccc3c(nc(C(O)c4ccc(Cl)cn4)n3C3CCCC(C(=O)O)C3)c2CC[C@@H]1C (some centres unmarked) [Example 610],1 to 1000 µM
12,"COC(=O)N1c2ccc3c(nc([C@H](C)c4ccccc4)n3[C@H]3CC[C@H](C(=O)O)CC3)c2CC[C@@H]1C [Example 56, trans-4-[(7S)-6-(methoxycarbonyl)-7-methyl-2-[(1R)-1-phenylethyl]-3H,6H,7H,8H,9H-imidazo[4,5-f]quinolin-3-yl]cyclohexane-1-carboxylic Acid]",1 to 1000 µM
13,COC(=O)N1c2ccc3c(nc(C(C)Cn4cccn4)n3C3CCS(=O)(=O)C3)c2CC[C@@H]1C (some centres unmarked) [Example 955],1 to 1000 µM
14,COC(=O)N1c2ccc3c(nc(CCc4ccn(C)n4)n3[C@H]3CC[C@H](C(=O)O)CC3)c2CC[C@@H]1C [Example 45],1 to 1000 µM
15,COC(=O)N1c2ccc3c(nc(C4(Oc5ccccc5)CC4)n3[C@H]3CC[C@H](C(=O)O)CC3)c2CC[C@@H]1C [Example 574],1 to 1000 µM
16,COC(=O)N1c2ccc3c(nc(Cc4ccc(Cl)cn4)n3[C@@H]3CCC[C@@H](C(=O)O)C3)c2CC[C@@H]1C [Example 663],1 to 1000 µM
17,COC(=O)N1c2ccc3c(nc(C(C)Cn4ccc(Cl)n4)n3C3CCCC(C(=O)O)C3)c2CC[C@@H]1C (some centres unmarked) [Example 827],1 to 1000 µM
18,COC(=O)N1c2ccc3c(nc(Cc4cnc(C)cn4)n3[C@@H]3CCC[C@@H](C(=O)O)C3)c2CC[C@@H]1C [Example 738],1 to 1000 µM
19,COC(=O)N1c2ccc3c(nc(C(c4ccc(OC)c(F)c4)C(C)C)n3C3CCC(C(=O)O)CC3)c2CC[C@@H]1C (some centres unmarked) [Example 466],1 to 1000 µM
20,COC(=O)N1c2ccc3c(nc(Cc4ccc(OC(F)F)cc4)n3[C@H]3CC[C@H](C(=O)O)CC3)c2CC[C@@H]1C [Example 544],1 to 1000 µM
21,COC(=O)N1c2ccc3c(nc(Cc4ccccc4)n3CC3CNC3)c2CC[C@@H]1C [Example 97],1 to 1000 µM

row,SMILES,IC50
1,COC(=O)N1c2ccc3c(nc(CCn4cccn4)n3CC(=O)NCc3nnc(C)n3C)c2CC[C@@H]1C [Example 343],1 to 1000 µM
2,"COC(=O)N1c2ccc3c(nc(Cc4ccccc4)n3CC(N)=O)c2CC[C@@H]1C [Example 286, methyl (S)-3-(2-amino-2-oxoethyl)-2-benzyl-7-methyl-3,7,8,9-tetrahydro-6H-imidazo[4,5-f]quinoline-6-carboxylate]",1 to 1000 µM
3,COC(=O)N1c2ccc3c(nc(Cc4ccccc4)n3[C@H]3C[C@H](C(=O)O)C3)c2CC[C@@H]1C [Example 21],1 to 1000 µM
4,COC(=O)N1c2ccc3c(nc(CCn4cccn4)n3CC(=O)N3CC[C@H](C(N)=O)C3)c2CC[C@@H]1C [Example 360],1 to 1000 µM
5,COC(=O)N1c2ccc3c(nc(CC[C@H]4CCOC4)n3[C@@H]3CCC[C@@H](C(=O)O)C3)c2CC[C@@H]1C [Example 804],1 to 1000 µM
6,COC(=O)N1c2ccc3c(nc(CCc4ccccc4)n3CCN3CCOCC3)c2CC[C@@H]1C [Example 245],1 to 1000 µM
7,COC(=O)N1c2ccc3c(nc(CCn4ccccc4=O)n3CC(=O)N3CCNC(=O)C3)c2CC[C@@H]1C [Example 400],1 to 1000 µM
8,"COC(=O)N1c2ccc3c(nc(C[C@H](C(=O)O)c4ccccc4)n3C)c2CC[C@@H]1C [Example 134, (2S)-3-[(7S)-6-(methoxycarbonyl)-3,7-dimethyl-3H,6H,7H,8H,9H-imidazo[4,5-f]quinolin-2-yl]-2-phenylpropanoic Acid]",1 to 1000 µM
9,COC(=O)N1c2ccc3c(nc(Nc4cc(C)nn4C)n3[C@H]3CC[C@H](C(=O)O)CC3)c2CC[C@@H]1C [Example 915],1 to 1000 µM
10,COC(=O)N1c2ccc3c(nc(CCn4ccccc4=O)n3CC(=O)NCc3ncnn3C)c2CC[C@@H]1C [Example 372],1 to 1000 µM
11,"COC(=O)N1c2ccc3c(nc(C[C@@H](C(=O)O)c4ccccc4)n3C)c2CC[C@@H]1C [Example 133, (2R)-3-[(7S)-6-(methoxycarbonyl)-3,7-dimethyl-3H,6H,7H,8H,9H-imidazo[4,5-f]quinolin-2-yl]-2-phenylpropanoic Acid]",1 to 1000 µM
12,COC(=O)N1c2ccc3c(nc(CCn4ccccc4=O)n3CC(=O)N(C)C3CCOCC3)c2CC[C@@H]1C [Example 384],1 to 1000 µM
13,COC(=O)N1c2ccc3c(nc(S(=O)(=O)Cc4ccccc4)n3[C@@H]3CCC[C@@H](C(=O)O)C3)c2CC[C@@H]1C [Example 814],1 to 1000 µM
14,COC(=O)N1c2ccc3c(nc(C(C)(O)c4ccccc4)n3C3CCCC(C(=O)O)C3)c2CC[C@@H]1C (some centres unmarked) [Example 607],1 to 1000 µM
15,COC(=O)N1c2ccc3c(nc([C@@H](c4ccccc4)S(C)(=O)=O)n3[C@H]3CC[C@H](C(=O)O)CC3)c2CC[C@@H]1C [Example 779],1 to 1000 µM
16,COC(=O)N1c2ccc3c(nc(Cc4ccccc4)n3[C@H]3CC[C@@H](C#N)CC3)c2CC[C@@H]1C [Example 256],1 to 1000 µM
17,COC(=O)N1c2ccc3c(nc(C4(Oc5cnccn5)CC4)n3[C@H]3CC[C@H](C(=O)O)CC3)c2CC[C@@H]1C [Example 823],1 to 1000 µM
18,COC(=O)N1c2ccc3c(nc(Nc4cccc(F)c4)n3[C@@H]3CCC[C@@H](C(=O)O)C3)c2CC[C@@H]1C [Example 802],1 to 1000 µM
19,COC(=O)N1c2ccc3c(nc(CCn4cccn4)n3CC(=O)N3CCC(CO)CC3)c2CC[C@@H]1C [Example 353],1 to 1000 µM
20,COC(=O)N1c2ccc3c(nc(CCc4ccccc4)n3C3CC4(CNC4)C3)c2CC[C@@H]1C [Example 81],1 to 1000 µM
21,COC(=O)N1c2ccc3c(nc(CCn4cccn4)n3CC(=O)NC[C@H]3CCCO3)c2CC[C@@H]1C [Example 347],1 to 1000 µM

row,SMILES,IC50
1,COC(=O)N1c2ccc3c(nc(C(C)Cc4cnn(C)c4)n3C3CCC(C(=O)O)CC3)c2CC[C@@H]1C (some centres unmarked) [Example 894],1 to 1000 µM
2,COC(=O)N1c2ccc3c(nc(CCn4ccccc4=O)n3CC(=O)Nc3ccn[nH]3)c2CC[C@@H]1C [Example 403],1 to 1000 µM
3,COC(=O)N1c2ccc3c(nc(Cc4ccc(OC)c(F)c4)n3C3CCNCC3)c2CC[C@@H]1C [Example 103],1 to 1000 µM
4,COC(=O)N1c2ccc3c(nc(Cc4cc(F)ccc4OC)n3[C@H]3CC[C@H](C(=O)O)CC3)c2CC[C@@H]1C [Example 561],1 to 1000 µM
5,COC(=O)N1c2ccc3c(nc(OCc4ccccc4)n3[C@H]3CC[C@H](C(=O)O)CC3)c2CC[C@@H]1C [Example 792],1 to 1000 µM
6,COC(=O)N1c2ccc3c(nc(C(C)Cn4cc(C)cn4)n3C3CCS(=O)(=O)C3)c2CC[C@@H]1C (some centres unmarked) [Example 844],1 to 1000 µM
7,COC(=O)N1c2ccc3c(nc(C(C)OC4CCOCC4)n3C3CCC(C(=O)O)CC3)c2CC[C@@H]1C (some centres unmarked) [Example 724],1 to 1000 µM
8,COC(=O)N1c2ccc3c(nc(CCC4CCCC4)n3C3CCCC(C(=O)O)C3)c2CC[C@@H]1C (some centres unmarked) [Example 514],1 to 1000 µM
9,COC(=O)N1c2ccc3c(nc(C(C)Cn4cc(C)cn4)n3C3CCC(C(=O)O)CC3)c2CC[C@@H]1C (some centres unmarked) [Example 655],1 to 1000 µM
10,COC(=O)N1c2ccc3c(nc(Cc4ccc(OC(F)F)cc4)n3[C@@H]3CCC[C@@H](C(=O)O)C3)c2CC[C@@H]1C [Example 533],1 to 1000 µM
11,"COC(=O)N1c2ccc3c(nc(Cc4ccccc4)n3[C@@H]3CCC[C@@H](c4nnn[nH]4)C3)c2CC[C@@H]1C [Example 281, methyl (S)-3-((1R,3R)-3-(1H-tetrazol-5-yl)cyclohexyl)-2-benzyl-7-methyl-3,7,8,9-tetrahydro-6H-imidazo[4,5-f]quinoline-6-carboxylate]",1 to 1000 µM
12,COC(=O)N1c2ccc3c(nc(Cc4ccc(OC)c(F)c4)n3[C@@H]3CCC[C@@H](C(=O)O)C3)c2CC[C@@H]1C [Example 481],1 to 1000 µM
13,COC(=O)N1c2ccc3c(nc(CC(C(=O)O)c4cccc5ccccc45)n3C3CCCOC3)c2CC[C@@H]1C (some centres unmarked) [Example 852],1 to 1000 µM
14,COC(=O)N1c2ccc3c(nc(CCn4ccccc4=O)n3CC(=O)N3CC[C@H](C(N)=O)C3)c2CC[C@@H]1C [Example 388],1 to 1000 µM
15,COC(=O)N1c2ccc3c(nc(Nc4ccccc4)n3[C@H]3CC[C@H](C(=O)O)CC3)c2CC[C@@H]1C [Example 843],1 to 1000 µM
16,COC(=O)N1c2ccc3c(nc(CCn4cccn4)n3CC(=O)NCc3ccno3)c2CC[C@@H]1C [Example 367],1 to 1000 µM
17,COC(=O)N1c2ccc3c(nc(CCn4ccccc4=O)n3CCNCc3ncnn3C)c2CC[C@@H]1C [Example 317],1 to 1000 µM
18,COC(=O)N1c2ccc3c(nc(CC(C(=O)O)c4ccc(C5CC5)cc4)n3C3CCCOC3)c2CC[C@@H]1C (some centres unmarked) [Example 620],1 to 1000 µM
19,"COC(=O)N1c2ccc3c(nc(Cc4ccccc4)n3[C@@H]3CC[C@@H](C(=O)O)OC3)c2CC[C@@H]1C [Example 72, (2S,5R)-5-((S)-2-benzyl-6-(methoxycarbonyl)-7-methyl-6,7,8,9-tetrahydro-3H-imidazo[4,5-f]quinolin-3-yl)tetrahydro-2H-pyran-2-carboxylic Acid]",1 to 1000 µM
20,COC(=O)N1c2ccc3c(nc(CCc4nc(C)no4)n3[C@H]3CC[C@H](C(=O)O)CC3)c2CC[C@@H]1C [Example 42],1 to 1000 µM
